From the supplement of paper PMC9103864 come the findings set out here.

The test system of assay [1] is BMSC (primary human bone marrow mesenchymal stromal cells). Description: drug sensitivity score (DSS); higher = more sensitive.
Assay [2] has the same test system. Kind of assay: absolute EC50 for viability; higher = less sensitive.

SMILES strings stand for the structures.

`Nc1nc(NC2CC2)cc(-c2cccc(Cl)c2Cl)n1` [TH588] gave a drug sensitivity score in assay [1] of 0. In assay [2], the “absolute EC50 for viability” value was > 25 µM.

Regarding `CN(C)C/C=C/C(=O)Nc1cccc(C(=O)Nc2cccc(Nc3ncc(Cl)c(-c4c[nH]c5ccccc45)n3)c2)c1` [THZ2], the drug sensitivity score in assay [1] was 11.1. The “absolute EC50 for viability” value in assay [2] came to 2.71 µM.

`Cc1ccccc1CN1C(=O)C2=C(CCN(Cc3ccccc3)C2)N2CCN=C12` [TIC10] returned a drug sensitivity score in assay [1] of 3.8. In addition, the “absolute EC50 for viability” value in assay [2] was > 25 µM.

In assay [1], `Clc1ccccc1C(c1ccccc1)(c1ccccc1)n1cccn1` [TRAM-34] showed a drug sensitivity score of 0. Moreover, the “absolute EC50 for viability” value in assay [2] was > 1 µM.

Turning to `CC(=O)Nc1ccc(C(=O)Nc2ccccc2N)cc1` [Tacedinaline], in assay [1], the drug sensitivity score is 0. Further, the “absolute EC50 for viability” value in assay [2] was > 1 µM.

In turn, `C=CC[C@@H]1/C=C(\C)C[C@H](C)C[C@H](OC)[C@H]2O[C@@](O)(C(=O)C(=O)N3CCCC[C@H]3C(=O)O[C@H](/C(C)=C/[C@@H]3CC[C@@H](O)[C@H](OC)C3)[C@H](C)[C@@H](O)CC1=O)[C@H](C)C[C@@H]2OC` [Tacrolimus] yielded a drug sensitivity score in assay [1] of 1.8. Moreover, the “absolute EC50 for viability” value in assay [2] is > 10 µM.

In assay [1], `CN(C(=O)c1ccc(F)cc1C(F)(F)F)C1CCN(c2nnc(-c3ccnn3C)c3ccccc23)CC1` [Taladegib] gave a drug sensitivity score of 0. In assay [2], the “absolute EC50 for viability” value is > 10 µM.

The compound `Cn1ncnc1[C@H]1c2n[nH]c(=O)c3cc(F)cc(c23)N[C@@H]1c1ccc(F)cc1` [Talazoparib] yielded a drug sensitivity score in assay [1] of 1. Also, in assay [2], the “absolute EC50 for viability” value is > 1 µM.

In assay [1], `C[C@@H]1CN(Cc2ccc(F)cc2)[C@@H](C)CN1C(=O)c1cc2c(C(=O)C(=O)N(C)C)cn(C)c2cc1Cl` [Talmapimod] had a drug sensitivity score of 0. Also, in assay [2], the “absolute EC50 for viability” value is > 10 µM.

`COc1cc(Nc2ncc(F)c(Nc3ccc4c(n3)NC(=O)C(C)(C)O4)n2)cc(OC)c1OC` [Tamatinib] gave a drug sensitivity score in assay [1] of 4.2. In assay [2], the “absolute EC50 for viability” value is > 10 µM.

Take `CC/C(=C(\c1ccccc1)c1ccc(OCCN(C)C)cc1)c1ccccc1` [Tamoxifen]: the drug sensitivity score in assay [1] amounted to 0. For the same compound, in assay [2], the “absolute EC50 for viability” value is > 10 µM.

Compound `COc1cc2c(N3CCN(C(=O)Nc4ccc(OC(C)C)cc4)CC3)ncnc2cc1OCCCN1CCCCC1` [Tandutinib] displayed a drug sensitivity score in assay [1] of 2.7. In assay [2], the “absolute EC50 for viability” value was > 1 µM.

Turning to `O[C@H]1CC[C@H](Nc2ncc3nc(Nc4c(F)cc(F)cc4F)n([C@H]4CCOC4)c3n2)CC1` [Tanzisertib], the drug sensitivity score in assay [1] came to 0.3. For the same compound, the “absolute EC50 for viability” value in assay [2] was > 10 µM.

On to `C[C@@H](C(=O)O)c1ccc(-c2ccccc2)c(F)c1` [Tarenflurbil], for which, in assay [1], the drug sensitivity score worked out at 0. Moreover, the “absolute EC50 for viability” value in assay [2] was > 10 µM.

`Cc1nc(-c2cn3c(n2)-c2ccc(-c4cnn(C(C)(C)C(N)=O)c4)cc2OCC3)n(C(C)C)n1` [Taselisib] displayed a drug sensitivity score in assay [1] of 8.9. Moreover, in assay [2], the “absolute EC50 for viability” value was > 1 µM.

In assay [1], `COc1cccc2c1c(O)c(C(=O)N(C)c1ccc(C(F)(F)F)cc1)c(=O)n2C` [Tasquinimod] displayed a drug sensitivity score of 0.8. In assay [2], the “absolute EC50 for viability” value was > 10 µM.

For `CCN(c1cc(-c2ccc(CN3CCOCC3)cc2)cc(C(=O)NCc2c(C)cc(C)[nH]c2=O)c1C)C1CCOCC1` [Tazemetostat], the drug sensitivity score in assay [1] was found to be 0. Further, the “absolute EC50 for viability” value in assay [2] was > 10 µM.

Turning to `CNC(=O)c1cc(COc2nnc(Nc3ccc(Cl)cc3)c3ccoc23)ccn1` [Telatinib], in assay [1], the drug sensitivity score was 4.2. For the same compound, in assay [2], the “absolute EC50 for viability” value was > 10 µM.

On to `Cn1nnc2c(C(N)=O)ncn2c1=O` [Temozolomide], for which the drug sensitivity score in assay [1] worked out at 0. Moreover, the “absolute EC50 for viability” value in assay [2] is > 100 µM.

In assay [1], `CO[C@H]1C[C@@H]2CC[C@@H](C)[C@@](O)(O2)C(=O)C(=O)N2CCCC[C@H]2C(=O)O[C@H]([C@H](C)C[C@@H]2CC[C@@H](OC(=O)C(C)(CO)CO)[C@H](OC)C2)CC(=O)[C@H](C)/C=C(\C)[C@@H](O)[C@@H](OC)C(=O)[C@H](C)C[C@H](C)/C=C/C=C/C=C/1C` [Temsirolimus] had a drug sensitivity score of 7.4. The “absolute EC50 for viability” value in assay [2] was > 0.1 µM.

In assay [1], `COc1cc([C@@H]2c3cc4c(cc3[C@@H](O[C@@H]3O[C@@H]5CO[C@@H](c6cccs6)O[C@H]5[C@H](O)[C@H]3O)[C@H]3COC(=O)[C@H]23)OCO4)cc(OC)c1O` [Teniposide] came in with a drug sensitivity score of 0. For the same compound, in assay [2], the “absolute EC50 for viability” value is > 10 µM.

Take `CN1CCC(COc2cnc(-c3cccc(Cn4nc(-c5cccc(C#N)c5)ccc4=O)c3)nc2)CC1` [Tepotinib]: in assay [1], the drug sensitivity score amounted to 0.3. In assay [2], the “absolute EC50 for viability” value is > 1 µM.

In assay [1], `COc1cc2c(Nc3ccc(Cl)c(Cl)c3F)ncnc2cc1OC[C@@H]1C[C@@H]2CN(C)C[C@@H]2C1` [Tesevatinib] displayed a drug sensitivity score of 4.1. Besides, the “absolute EC50 for viability” value in assay [2] was > 1 µM.

The compound `O=C1CCC(N2C(=O)c3ccccc3C2=O)C(=O)N1` (stereo not given) [Thalidomide] displayed a drug sensitivity score in assay [1] of 0. In assay [2], the “absolute EC50 for viability” value was > 10 µM.

In turn, `Nc1nc2[nH]cnc2c(=S)[nH]1` [Thioguanine] gave a drug sensitivity score in assay [1] of 9.2. Also, the “absolute EC50 for viability” value in assay [2] turned out to be 1.18 µM.

Regarding `O=c1sn(-c2cccc3ccccc23)c(=O)n1Cc1ccccc1` [Tideglusib], in assay [1], the drug sensitivity score stood at 0. The “absolute EC50 for viability” value in assay [2] was > 3 µM.

`Cn1cncc1[C@@](N)(c1ccc(Cl)cc1)c1ccc2c(c1)c(-c1cccc(Cl)c1)cc(=O)n2C` [Tipifarnib] came in with a drug sensitivity score in assay [1] of 4.4. Besides, in assay [2], the “absolute EC50 for viability” value is > 10 µM.

Turning to `O=C1NC(=O)[C@@H](c2cn3c4c(cccc24)CCC3)[C@@H]1c1c[nH]c2ccccc12` [Tivantinib], the drug sensitivity score in assay [1] is 0. In addition, the “absolute EC50 for viability” value in assay [2] is > 1 µM.

In the case of `COc1cc2nccc(Oc3ccc(NC(=O)Nc4cc(C)on4)c(Cl)c3)c2cc1OC` [Tivozanib], the drug sensitivity score in assay [1] was 7.6. Besides, the “absolute EC50 for viability” value in assay [2] was > 10 µM.

The compound `C[C@@H]1CCN(C(=O)CC#N)C[C@@H]1N(C)c1ncnc2[nH]ccc12` [Tofacitinib] came in with a drug sensitivity score in assay [1] of 0. Besides, in assay [2], the “absolute EC50 for viability” value was > 5 µM.

Compound `CC[C@@]1(O)C(=O)OCc2c1cc1n(c2=O)Cc2cc3c(CN(C)C)c(O)ccc3nc2-1` [Topotecan] returned a drug sensitivity score in assay [1] of 4.4. In addition, the “absolute EC50 for viability” value in assay [2] was > 10 µM.

In assay [1], `CN(C)CCOc1ccc(/C(=C(/CCCl)c2ccccc2)c2ccccc2)cc1` [Toremifene] had a drug sensitivity score of 0. Moreover, the “absolute EC50 for viability” value in assay [2] was > 10 µM.

`CC(C)C[C@@H](C(=O)N[C@H](C(=O)OC1CCCC1)c1ccccc1)[C@H](O)C(=O)NO` [Tosedostat] showed a drug sensitivity score in assay [1] of 0. The “absolute EC50 for viability” value in assay [2] was > 10 µM.

With `Cc1cc(Nc2cc(N3CCN(C)CC3)nc(Sc3ccc(NC(=O)C4CC4)cc3)n2)n[nH]1` [Tozasertib], in assay [1], the drug sensitivity score was 4.9. In assay [2], the “absolute EC50 for viability” value is 4.45 µM.

As to `CC(=O)Nc1cccc(-n2c(=O)n(C3CC3)c(=O)c3c(Nc4ccc(I)cc4F)n(C)c(=O)c(C)c32)c1` [Trametinib], the drug sensitivity score in assay [1] came to 2.7. In assay [2], the “absolute EC50 for viability” value was > 0.25 µM.

Take `CC1=C(/C=C/C(C)=C/C=C/C(C)=C/C(=O)O)C(C)(C)CCC1` [Tretinoin]: in assay [1], the drug sensitivity score came out at 0. Besides, in assay [2], the “absolute EC50 for viability” value was > 10 µM.

Regarding `NC(=S)N/N=C/c1ncccc1N` [Triapine], in assay [1], the drug sensitivity score turned out to be 0. Further, in assay [2], the “absolute EC50 for viability” value is > 10 µM.

In the case of `O=c1[nH]c(=O)n([C@H]2C[C@H](O)[C@@H](CO)O2)cc1C(F)(F)F` [Trifluridine], the drug sensitivity score in assay [1] turned out to be 0. Besides, the “absolute EC50 for viability” value in assay [2] is > 10 µM.

For the compound `O=C(CCCCCCC(=O)Nc1ccc([C@H]2O[C@@H](CSc3nc(-c4ccccc4)c(-c4ccccc4)o3)C[C@@H](c3ccc(CO)cc3)O2)cc1)NO` [Tubacin], the drug sensitivity score in assay [1] came to 0. Further, in assay [2], the “absolute EC50 for viability” value was > 10 µM.

In assay [1], `CN1CCc2c(c3ccccc3n2Cc2ccc(C(=O)NO)cc2)C1` [Tubastatin A] gave a drug sensitivity score of 0. Moreover, the “absolute EC50 for viability” value in assay [2] was found to be 9.93 µM.

`CN[C@@H]1C[C@H]2O[C@@](C)([C@@H]1OC)n1c3ccccc3c3c4c(c5c6ccccc6n2c5c31)C(=O)N[C@H]4O` [UCN-01] came in with a drug sensitivity score in assay [1] of 13.3. The “absolute EC50 for viability” value in assay [2] was 0.643 µM.

With `COC(=O)c1ccc2c(c1)[nH]c1ncnc(NCCCN3CCCCC3)c12` [UM729], the drug sensitivity score in assay [1] was 3.3. Further, in assay [2], the “absolute EC50 for viability” value was > 10 µM.

For the compound `COc1cc2c(NC3CCN(C(C)C)CC3)nc(C3CCCCC3)nc2cc1OCCCN1CCCC1` [UNC0638], in assay [1], the drug sensitivity score turned out to be 5.4. The “absolute EC50 for viability” value in assay [2] amounted to 3.29 µM.

On to `COc1cc2c(NC3CCN(C(C)C)CC3)nc(N3CCC(F)(F)CC3)nc2cc1OCCCN1CCCC1` [UNC0642], for which the drug sensitivity score in assay [1] is 5.2. In addition, in assay [2], the “absolute EC50 for viability” value is 3.38 µM.

As to `O=C(c1ccc(C(=O)N2CCC(N3CCCC3)CC2)c(Nc2ccccc2)c1)N1CCC(N2CCCC2)CC1` [UNC1215], in assay [1], the drug sensitivity score was 0. The “absolute EC50 for viability” value in assay [2] was > 10 µM.

In assay [1], `CCCCNc1ncc(C(=O)NCc2ccc(-n3ccnc3)cc2)c(NC2CCC(O)CC2)n1` (stereo not given) [UNC2881] registered a drug sensitivity score of 0.1. For the same compound, the “absolute EC50 for viability” value in assay [2] was > 2.5 µM.

For `NC(=O)c1cccc(-c2cccc(OC(=O)NC3CCCCC3)c2)c1` [URB597], the drug sensitivity score in assay [1] is 0. The “absolute EC50 for viability” value in assay [2] was > 1 µM.

`CC(C)Nc1cc(-c2c[nH]c(C(=O)N[C@H](CO)c3cccc(Cl)c3)c2)c(Cl)cn1` [Ulixertinib] showed a drug sensitivity score in assay [1] of 2.4. For the same compound, in assay [2], the “absolute EC50 for viability” value was > 10 µM.

In the case of `CC[C@@H]1CN(C(=O)NCC(F)(F)F)C[C@@H]1c1cnc2cnc3[nH]ccc3n12` [Upadacitinib], in assay [1], the drug sensitivity score turned out to be 1.1. Besides, the “absolute EC50 for viability” value in assay [2] was > 10 µM.

`Cn1ncc(Cl)c1-c1cc(C(=O)N[C@H](CN)Cc2ccc(F)c(F)c2)oc1Cl` [Uprosertib] yielded a drug sensitivity score in assay [1] of 2.4. In addition, in assay [2], the “absolute EC50 for viability” value is > 10 µM.
